Assay results from patent US11433028B2, “Compositions for treating viral infections and methods for same” (Tiger Development, LLC, priority 2018, dated 2022).

Legend:
SARS-CoV-2 [1] = assay type: in vivo, mice
SARS-CoV-2 [2] = test system: SARS-CoV-2; set-up: species or system mice; conditions: mouse, in vivo

polylysine
increase in total survival across the treatment period (SARS-CoV-2 [1]; mouse, in vivo): 5 fold
mice surviving the treatment and exposure period (SARS-CoV-2 [1]; mouse, in vivo): six of ten
body weight after the treatment and exposure period (recovery) (SARS-CoV-2 [1]; surviving mice, p<0.05, FIG. 3A/3B): increasing weight to near pre-treatment levels
improved survival rate (SARS-CoV-2 [2]): 50%
onset of morbidity (SARS-CoV-2 [2]): delayed onset of morbidity
